Data published in ChEMBL document CHEMBL5104164, “Design, synthesis, and biological evaluation of pyrrolopyrimidine derivatives as novel Bruton's tyrosine kinase (BTK) inhibitors” (Eur J Med Chem, 2022).

Key:
[1] = target: Tyrosine-protein kinase BTK (Homo sapiens, UniProt Q06187); assay: Inhibition of BTK (unknown origin) measured by ADP-Glo assay
TMD8 = assay: Antiproliferative activity against human TMD8 cells incubated for 72 hrs by CellTiter-Glo assay; conditions: TMD8, 72 h
Homo sapiens = species on record: Homo sapiens; assay: Selectivity ratio for inhibition of BTK (unknown origin) over EGFR (unknown origin)
[2] = Half-life in male BALB/c mouse at 2 mg/kg, iv; format: ADME, organism-based; conditions: in vivo
[3] = Cmax in male BALB/c mouse at 2 mg/kg, iv; format: ADME, organism-based; parameters: dose 2 mg/kg, route iv; conditions: in vivo
[4] = Tmax in male BALB/c mouse at 10 mg/kg, po; format: ADME, organism-based; conditions: in vivo
[5] = AUC (0 to infinity) in male BALB/c mouse at 10 mg/kg, po; format: ADME, organism-based; parameters: time infinity, dose 10 mg/kg, route po; conditions: in vivo
[6] = Half-life in male BALB/c mouse at 10 mg/kg, po; format: ADME, organism-based; conditions: in vivo
[7] = AUC (0 to t) in male BALB/c mouse at 2 mg/kg, iv; format: ADME, organism-based; parameters: dose 2 mg/kg, route iv; conditions: in vivo
[8] = AUC (0 to infinity) in male BALB/c mouse at 2 mg/kg, iv; format: ADME, organism-based; parameters: time infinity, dose 2 mg/kg, route iv; conditions: in vivo
[9] = Oral bioavailability in male BALB/c mouse; format: ADME, organism-based; conditions: in vivo
[10] = Clearance in male BALB/c mouse at 2 mg/kg, iv; format: ADME, organism-based; conditions: in vivo
[11] = Cmax in male BALB/c mouse at 10 mg/kg, po; format: ADME, organism-based; parameters: dose 10 mg/kg, route po; conditions: in vivo
[12] = AUC (0 to t) in male BALB/c mouse at 10 mg/kg, po; format: ADME, organism-based; parameters: dose 10 mg/kg, route po; conditions: in vivo
[13] = Tmax in male BALB/c mouse at 2 mg/kg, iv; format: ADME, organism-based; conditions: in vivo
[14] = Apparent volume of distribution in male BALB/c mouse at 2 mg/kg, iv; format: ADME, organism-based; conditions: in vivo, read-out: Vz

Tyrosine-protein kinase BTK, sequence (Q06187 whole entry): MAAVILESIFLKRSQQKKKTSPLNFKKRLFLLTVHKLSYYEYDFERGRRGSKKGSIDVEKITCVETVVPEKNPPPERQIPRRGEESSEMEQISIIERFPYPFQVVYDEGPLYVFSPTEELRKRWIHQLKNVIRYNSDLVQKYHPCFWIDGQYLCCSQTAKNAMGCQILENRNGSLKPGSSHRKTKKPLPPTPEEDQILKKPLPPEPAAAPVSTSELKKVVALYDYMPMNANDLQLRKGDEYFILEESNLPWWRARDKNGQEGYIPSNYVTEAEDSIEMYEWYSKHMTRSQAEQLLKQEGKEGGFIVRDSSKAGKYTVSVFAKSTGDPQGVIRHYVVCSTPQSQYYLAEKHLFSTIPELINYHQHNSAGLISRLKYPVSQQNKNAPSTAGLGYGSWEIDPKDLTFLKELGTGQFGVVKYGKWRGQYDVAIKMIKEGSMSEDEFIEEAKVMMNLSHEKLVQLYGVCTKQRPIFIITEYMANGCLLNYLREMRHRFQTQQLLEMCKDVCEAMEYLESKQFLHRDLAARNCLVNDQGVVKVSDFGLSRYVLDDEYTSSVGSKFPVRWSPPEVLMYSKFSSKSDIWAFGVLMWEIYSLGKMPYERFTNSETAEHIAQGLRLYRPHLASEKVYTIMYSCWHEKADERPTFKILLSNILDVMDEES

| SMILES | IC50 [1] | IC50 (TMD8) | other results |
| --- | --- | --- | --- |
| C=CC(=O)NC1CCCN(c2ncnc3[nH]cc(C(=O)N4CC(Oc5ccccc5)C4)c23)C1 (stereo not given) | 5410 nM | – | – |
| C=CC(=O)N1CCC(CNc2ncnc3[nH]cc(C(=O)N4CC(Oc5cccc(C)c5)C4)c23)CC1 | 0.5 nM | 15.6 nM | – |
| C=CC(=O)N1CC=C(c2c[nH]c3ncnc(-c4ccc(CNC(=O)Nc5ccccc5)c(F)c4)c23)CC1 | 0.8 nM | 12.1 nM | – |
| C=CC(=O)N1CCC(Nc2ncnc3[nH]cc(C(=O)N4CC(Oc5ccccc5)C4)c23)CC1 | 593 nM | – | – |
| C=CC(=O)N1CCC(CNc2ncnc3[nH]cc(C(=O)NCCc4ccccc4)c23)CC1 | 17.3 nM | – | – |
| C=CC(=O)N1CCC([C@@H]2CCNc3c(C(N)=O)c(-c4ccc(Oc5ccccc5)cc4)nn32)CC1 | – | – | Selectivity ratio (Homo sapiens): 8.7 |
| CC#CC(=O)N1CC=C(c2c[nH]c3ncnc(-c4ccc(CNC(=O)c5ccc(C(C)(C)C)cc5)c(F)c4)c23)CC1 | 0.8 nM | 1.7 nM | – |
| C=CC(=O)N1CC=C(c2c[nH]c3ncnc(-c4ccc(CNC(=O)c5ccc(C(C)(C)C)cc5)c(F)c4)c23)CC1 | 1.3 nM | 3.4 nM | – |
| CC#CC(=O)N1CC=C(c2c[nH]c3ncnc(-c4ccc(CNC(=O)c5ccccc5)c(F)c4)c23)CC1 | 1 nM | 5.4 nM | – |
| C=CC(=O)N1CCC(c2c[nH]c3ncnc(-c4ccc(CNC(=O)c5ccc(C(C)(C)C)cc5)c(C)c4)c23)CC1 | 0.8 nM | 1.5 nM | – |
| C=CC(=O)N1CCCC(Nc2ncnc3[nH]cc(C(=O)N4CC(Oc5ccccc5)C4)c23)C1 (stereo not given) | 1.9 nM | 454 nM | – |
| C=CC(=O)N1CCC(c2c[nH]c3ncnc(-c4ccc(CNC(=O)c5ccc(C(C)(C)C)cc5)cc4)c23)CC1 | 2.1 nM | – | – |
| CC#CC(=O)N1CC=C(c2c[nH]c3ncnc(-c4ccc(CNC(=O)c5ccc(C6CC6)cc5)c(F)c4)c23)CC1 | 1.9 nM | 1.2 nM | – |
| C=CC(=O)N1CCC(CNc2ncnc3[nH]cc(C(=O)N4CC(OCc5ccccc5)C4)c23)CC1 | 2 nM | 30.7 nM | – |
| CC#CC(=O)N1CCC(c2c[nH]c3ncnc(-c4ccc(CNC(=O)c5ccc(C(C)(C)C)cc5)c(F)c4)c23)CC1 | 1.2 nM | 1.8 nM | half-life [2]: 167 min; Cmax [3]: 2160 ng/mL; Tmax [4]: 4.8 min; AUC(0-inf) [5]: 9.57 ng·h/mL; half-life [6]: 83.4 min; AUC(0-t) [7]: 229 ng·h/mL; AUC(0-inf) [8]: 231 ng·h/mL; bioavailability [9]: 0.78%; clearance [10]: 144 mL/min/kg; Cmax [11]: 49.9 ng/mL; AUC(0-t) [12]: 8.94 ng·h/mL; Tmax [13]: 1.8 min; Vd [14]: 34.8 L/kg |
| C=CC(=O)N1CCC(CNc2ncnc3[nH]cc(C(=O)N4CC(Oc5cccc(Cl)c5)C4)c23)CC1 | 0.5 nM | 12.9 nM | half-life [2]: 11.4 min; Cmax [3]: 1250 ng/mL; Tmax [4]: 6.6 min; AUC(0-inf) [5]: 32.9 ng·h/mL; half-life [6]: 23.4 min; AUC(0-t) [7]: 359 ng·h/mL; AUC(0-inf) [8]: 541 ng·h/mL; bioavailability [9]: 1.82%; clearance [10]: 92.8 mL/min/kg; Cmax [11]: 48.6 ng/mL; AUC(0-t) [12]: 32.8 ng·h/mL; Tmax [13]: 3 min; Vd [14]: 1.52 L/kg |
| CCOc1cc2ncc(C#N)c(Nc3ccc(OCc4ccccn4)c(Cl)c3)c2cc1NC(=O)/C=C/[C@H]1CCCN1C [PYROTINIB] | 31.7 nM | – | – |
| C=CC(=O)N1CCC(CNc2ncnc3[nH]cc(C(=O)NCCOc4ccccc4)c23)CC1 | 8.4 nM | – | – |
| CC#CC(=O)N1CCCC(Nc2ncnc3[nH]cc(C(=O)N4CC(Oc5ccccc5)C4)c23)C1 (stereo not given) | 153 nM | – | – |
| C=CC(=O)N1CCC(CNc2ncnc3[nH]cc(C(=O)N4CC(Oc5ccccn5)C4)c23)CC1 | 0.8 nM | 38.1 nM | – |
| C=CC(=O)N1CCC(CNc2ncnc3[nH]cc(C(=O)N4CC(Oc5ccc6ccccc6c5)C4)c23)CC1 | 1.4 nM | 28 nM | – |
| C=CC(=O)N1CCC(Nc2ncnc3[nH]cc(C(=O)N4CC(Oc5ccccc5)C4)c23)C1 (stereo not given) | 4.5 nM | 2530 nM | – |
| C=CC(=O)N1CC[C@H](n2nc(C#Cc3cc(OC)cc(OC)c3)c3c(N)ncnc32)C1 [FUTIBATINIB] | 94.9 nM | – | – |
| C=CC(=O)N1CC=C(c2c[nH]c3ncnc(-c4ccc(CNC(=O)c5ccc(C(C)(C)C)cc5)c(C)c4)c23)CC1 | 1.34 nM | – | – |

| SMILES | IC50 [1] | IC50 (TMD8) | other results |
| --- | --- | --- | --- |
| C=CC(=O)N1CCC(CNc2ncnc3[nH]cc(C(=O)N4CC(Oc5cccc(F)c5)C4)c23)CC1 | 0.4 nM | 9.2 nM | half-life [2]: 15.6 min; Cmax [3]: 2230 ng/mL; Tmax [4]: 15 min; AUC(0-inf) [5]: 75.3 ng·h/mL; half-life [6]: 57 min; AUC(0-t) [7]: 539 ng·h/mL; AUC(0-inf) [8]: 541 ng·h/mL; bioavailability [9]: 2.58%; clearance [10]: 61.8 mL/min/kg; Cmax [11]: 148 ng/mL; AUC(0-t) [12]: 69.5 ng·h/mL; Tmax [13]: 1.8 min; Vd [14]: 1.37 L/kg |
| C=CC(=O)N1CCC(c2c[nH]c3ncnc(-c4ccc(CNC(=O)c5ccc(C(C)(C)C)cc5)c(F)c4)c23)CC1 | 1.9 nM | – | – |
| C=CC(=O)N1CCC(O)(CNc2ncnc3[nH]cc(C(=O)N4CC(Oc5ccccc5)C4)c23)CC1 | 2.2 nM | 320 nM | – |
| C=CC(=O)N1CCC(CNc2ncnc3[nH]cc(C(=O)N4CC(Oc5ccc(F)cc5)C4)c23)CC1 | 0.7 nM | 84.1 nM | – |
| CC#CC(=O)N1CC=C(c2c[nH]c3ncnc(-c4ccc(CNC(=O)c5ccc(C(C)(C)C)cc5)cc4)c23)CC1 | 11.1 nM | – | – |
| CC#CC(=O)N1CC=C(c2c[nH]c3ncnc(-c4ccc(CNC(=O)c5ccc(C(C)(C)C)cc5)c(C)c4)c23)CC1 | 1.1 nM | 1.7 nM | – |
| C=CC(=O)N1CCC(CNc2ncnc3[nH]cc(C(=O)N4CCC(Oc5ccccc5)CC4)c23)CC1 | 26.2 nM | – | – |
| C=CC(=O)N1CCC(CNc2ncnc3[nH]cc(C(=O)N4CC(Oc5ccccc5)C4)c23)CC1 | 0.6 nM | 24.4 nM | – |
| CC#CC(=O)N1CCC(Nc2ncnc3[nH]cc(C(=O)N4CC(Oc5ccccc5)C4)c23)CC1 | 974 nM | – | – |
| C=CC(=O)N1CCC(CNc2ncnc3[nH]cc(C(=O)Nc4ccccc4)c23)CC1 | 98.7 nM | – | – |
| C=CC(=O)N1CCC(CNc2ncnc3[nH]cc(C(=O)N4CC(OC(C)C)C4)c23)CC1 | 23.2 nM | – | – |
| C=CC(=O)NCCNc1ncnc2[nH]cc(C(=O)N3CC(Oc4ccccc4)C3)c12 | 92.9 nM | – | – |
| CC#CC(=O)NC1CCCN(c2ncnc3[nH]cc(C(=O)N4CC(Oc5ccccc5)C4)c23)C1 (stereo not given) | > 10000 nM | – | – |
| CC#CC(=O)N1CC=C(c2c[nH]c3ncnc(-c4ccc(CNC(=O)Nc5ccccc5)c(F)c4)c23)CC1 | 1.4 nM | 7.2 nM | – |
| CC#CC(=O)N1CCC(c2c[nH]c3ncnc(-c4ccc(CNC(=O)c5ccc(C(C)(C)C)cc5)cc4)c23)CC1 | 2.2 nM | – | – |
| C=CC(=O)N1CCC(CNc2ncnc(N)c2-c2ccc(Oc3ccccc3)cc2)CC1 [EVOBRUTINIB] | – | 56.2 nM | – |
| CC#CC(=O)N1CCC(Nc2ncnc3[nH]cc(C(=O)N4CC(Oc5ccccc5)C4)c23)C1 (stereo not given) | 68.5 nM | – | – |
| CC#CC(=O)N1CCC(c2c[nH]c3ncnc(-c4ccc(CNC(=O)c5ccc(C(C)(C)C)cc5)c(C)c4)c23)CC1 | 1.4 nM | – | – |
| C=CC(=O)N1CC=C(c2c[nH]c3ncnc(-c4ccc(CNC(=O)c5ccc(C(C)(C)C)cc5)cc4)c23)CC1 | 2.5 nM | – | – |
| C=CC(=O)N1CCC(CNc2ncnc3[nH]cc(C(=O)N4CC(Oc5cccc(C(F)(F)F)c5)C4)c23)CC1 | 1.6 nM | 22.4 nM | – |
| C=CC(=O)N1CCC(CNc2ncnc3[nH]cc(C(=O)NCc4ccccc4)c23)CC1 | 52.3 nM | – | – |
| C=CC(=O)N1CC=C(c2c[nH]c3ncnc(-c4ccc(CNC(=O)c5ccc(C6CC6)cc5)c(F)c4)c23)CC1 | 1.2 nM | 0.8 nM | – |
| C=CC(=O)N1CCC(CNc2ncnc3[nH]cc(C(=O)N4CC(Oc5cccc6ccccc56)C4)c23)CC1 | 0.8 nM | 22.6 nM | – |
| CC#CC(=O)N1CCC(CNc2ncnc3[nH]cc(C(=O)N4CC(Oc5ccccc5)C4)c23)CC1 | 16.4 nM | – | – |
